This note sets out measurements from patent US20230399341A1, “7-PHENYL SUBSTITUTED 2-AMINOQUINAZOLINE INHIBITORS OF HPK1” (MERCK SHARP & DOHME LLC, priority 2020, published 2023).

As usually defined, the IC50 is the concentration that inhibits the measured activity by half. A low value points to greater potency in that assay.

This assay concerns the target T1, Human HPK1, catalytic domain (Homo sapiens, UniProt Q92918).
T1 sequence (Q92918 1-346): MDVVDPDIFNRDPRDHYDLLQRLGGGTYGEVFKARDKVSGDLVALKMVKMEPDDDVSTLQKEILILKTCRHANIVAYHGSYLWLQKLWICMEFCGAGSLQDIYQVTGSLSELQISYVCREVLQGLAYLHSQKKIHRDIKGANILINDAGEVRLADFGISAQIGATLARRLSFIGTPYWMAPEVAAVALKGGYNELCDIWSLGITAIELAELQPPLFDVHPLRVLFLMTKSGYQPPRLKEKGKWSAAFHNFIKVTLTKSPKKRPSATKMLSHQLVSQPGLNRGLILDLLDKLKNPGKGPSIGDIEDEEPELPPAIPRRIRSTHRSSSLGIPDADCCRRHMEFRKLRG
The experiment in a line: HPK1-SLP76 TR-FRET Assay. Particulars: 75 pM HPK1, ATP 10 uM, SLP76 10 nM, 30 min pre-incubation, 60 min reaction. The assay is classed as biochemical. A general note: Time-resolved FRET reads energy transfer from a long-lived donor to a nearby acceptor.

Regarding `Cc1c(-c2cc3nc(Nc4ccc(CS(C)(=O)=O)c(F)c4)ncc3c(N)c2F)cnc2c1NCCO2` [Compound 2-114, 6-fluoro-N~2~-{3-fluoro-4-[(methanesulfonyl)methyl]phenyl}-7-(8-methyl-2,3-dihydro-1H-pyrido[2,3-b][1,4]oxazin-7-yl)quinazoline-2,5-diamine], the half-maximal inhibitory concentration (IC50) was determined as 0.0654 nM.

In turn, `COc1cc2c(cc1Nc1ncc3ccc([C@H]4CC[C@H](CN)CC4)cc3n1)CN(C)CC2` [Compound 5-2, 7-((1r,4r)-4-(aminomethyl)-cyclohexyl)-N-(6-methoxy-2-methyl-1,2,3,4-tetrahydroiso-quinolin-7-yl)quinazolin-2-amine] displayed an IC50 of 165 nM.

`Cc1c(-c2cc3nc(Nc4ccc(CS(=O)(=O)C5CC5)cc4)ncc3c(N)c2F)cnc2c1NCCO2` [Compound 2-136] registered an IC50 of 0.101 nM.

Consider `COc1cc2c(cc1Nc1ncc3ccc(-c4ccc5c(c4)CCC(=O)N5)cc3n1)CNCC2` [Compound 1-88, 6-{2-[(6-methoxy-1,2,3,4-tetrahydroisoquinolin-7-yl)amino]quinazolin-7-yl}-3,4-dihydroquinolin-2(1H)-one], for which the IC50 was determined as 96.9 nM.

In the case of `CNC(=O)C1(c2ccc(Nc3ncc4cc(F)c(-c5cnc6c(c5C)NCCO6)cc4n3)cc2)CCC1` [Compound 1-121, 1-(4-{[6-fluoro-7-(8-methyl-2,3-dihydro-1H-pyrido[2,3-b][1,4]oxazin-7-yl)quinazolin-2-yl]amino}phenyl)-N-methylcyclobutane-1-carboxamide], the IC50 was found to be 0.256 nM.

For `Cc1c(-c2cc3nc(Nc4cc5c(cn4)CCN(C)C5)ncc3c(N)c2F)cnc2c1NCCO2` [Compound 2-142, 6-fluoro-7-(8-methyl-2,3-dihydro-1H-pyrido[2,3-b][1,4]oxazin-7-yl)-N~2~- (6-methyl-5,6,7,8-tetrahydro-2,6-naphthyridin-3-yl)quinazoline-2,5-diamine], 1.23 nM corresponded to half-maximal inhibition (IC50).

As to `COc1cc(C(C)S(C)(=O)=O)ccc1Nc1ncc2c(N)c(F)c(-c3cnc4c(c3C)NCCO4)cc2n1` (single isomer, unassigned) [Compound 2-56, (R or S)-6-fluoro-N˜2˜-{2-methoxy-4-[1-(methylsulfonyl)ethyl]phenyl}-7-(8-methyl-2,3-dihydro-1H-pyrido[2,3-b][1,4]oxazin-7-yl)quinazoline-2,5-diamine], the IC50 is 0.102 nM.

Consider `COc1cc2c(cc1Nc1ncc3ccc(-c4cncc(C)c4)cc3n1)CNCC2` [Compound 1-41, N-(6-methoxy-1,2,3,4-tetrahydroisoquinolin-7-yl)-7-(5-methylpyridin-3-yl)quinazolin-2-amine], for which it took 9.67 nM to reach half-maximal inhibition (IC50).

With `COc1cc2c(cc1Nc1ncc3c(N)cc(Oc4ccc5c(c4)CCNC5)cc3n1)CN(C)CC2` [Compound 4-9, N2-(6-Methoxy-2-methyl-1,2,3,4-tetrahydroisoquinolin-7-yl)-7-((1,2,3,4-tetrahydroisoquinolin-6-yl)oxy)quinazoline-2,5-diamine], the IC50 amounted to 2.19 nM.

The compound `CCC1COC(=O)N1c1ccc2cnc(Nc3cc4c(cc3OC)CCN(C)C4)nc2c1` (single isomer, unassigned) [Compound 3-14, (S or R)-4-ethyl-3-{2-[(6-methoxy-2-methyl-1,2,3,4-tetrahydroisoquinolin-7-yl)amino]quinazolin-7-yl}-1,3-oxazolidin-2-one] showed an IC50 of 24.6 nM.

`COc1cc2c(cc1Nc1ncc3ccc(-c4cnn5c4CCC5)cc3n1)CNCC2` [Compound 1-35, 7-(5,6-dihydro-4H-pyrrolo[1,2-b]pyrazol-3-yl)-N-(6-methoxy-1,2,3,4-tetrahydroisoquinolin-7-yl)quinazolin-2-amine] showed an IC50 of 0.689 nM.

`COc1cc2c(cc1Nc1ncc3c(N)c(F)c(-c4cnc5c(c4C)NCCO5)c(Cl)c3n1)CN(C)CC21CC1` (single isomer, unassigned) [Compound 2-163, 8-chloro-6-fluoro-N~2~- (6′-methoxy-2′-methyl-2′,3′-dihydro-1′H-spiro[cyclopropane-1,4′-isoquinolin]-7′-yl)-7-(8-methyl-2,3-dihydro-1H-pyrido[2,3-b][1,4]oxazin-7-yl)quinazoline-2,5-diamine] displayed an IC50 of 0.0588 nM.

The compound `Cc1c(-c2c(F)c(N)c3cnc(Nc4ccc5c(c4)CN(C)CC54CC4)nc3c2C#N)cnc2c1NCCO2` [Compound 2-109, (+ or −)-5-amino-6-fluoro-2-((2′-methyl-2′,3′-dihydro-1′H-spiro[cyclopropane-1,4′-isoquinolin]-7′-yl)amino)-7-(8-methyl-2,3-dihydro-1H-pyrido[2,3-b][1,4]oxazin-7-yl)quinazoline-8-carbonitrile] showed an IC50 of 0.0528 nM.

Take `Cc1c(-c2c(F)c(N)c3cnc(Nc4ccc(CC(C)(C)O)cc4)nc3c2Cl)cnc2c1NCCO2` [Compound 2-164, 1-(4-{[5-amino-8-chloro-6-fluoro-7-(8-methyl-2,3-dihydro-1H-pyrido[2,3-b][1,4]oxazin-7-yl)quinazolin-2-yl]amino}phenyl)-2-methylpropan-2-ol]: the midpoint of inhibition, the IC50, lay at 0.487 nM.

`COc1cc2c(cc1Nc1ncc3ccc(-c4cccc(O)c4)cc3n1)CNCC2` [Compound 1-59, 3-{2-[(6-methoxy-1,2,3,4-tetrahydroisoquinolin-7-yl)amino]quinazolin-7-yl}phenol]: the IC50 was found to be 36.2 nM.

With `COc1cc2c(cc1Nc1ncc3ccc(-c4cccc5c4CCNC5)cc3n1)CN(C)CC2` [Compound 1-6, N-(6-methoxy-2-methyl-1,2,3,4-tetrahydroisoquinolin-7-yl)-7-(1,2,3,4-tetrahydroisoquinolin-5-yl)quinazolin-2-amine], it took 92.2 nM to reach half-maximal inhibition (IC50).

The compound `CCS(=O)(=O)Cc1ccc(Nc2ncc3c(N)c(F)c(-c4cnc5c(c4C)NCCO5)cc3n2)c(F)c1` [Compound 2-143, N~2~-{4-[(ethylsulfonyl)methyl]-2-fluorophenyl}-6-fluoro-7-(8-methyl-2,3-dihydro-1H-pyrido[2,3-b][1,4]oxazin-7-yl)quinazoline-2,5-diamine] came in with an IC50 of 0.0888 nM.

For the compound `CNC(=O)Cc1ccc(Nc2ncc3c(N)c(F)c(-c4cnc5c(c4C)NCCO5)cc3n2)cc1` [Compound 2-13], the IC50 is 0.0496 nM.

`Cc1c(-c2c(F)c(N)c3cnc(Nc4ccc5c(c4)CN(C(C)C)CC5)nc3c2Cl)cnc2c1NCCO2` [Compound 2-96, (+ or −)-8-chloro-6-fluoro-7-(8-methyl-2,3-dihydro-1H-pyrido[2,3-b[1,4]oxazin-7-yl)-N~2~- [2-(propan-2-yl)-1,2,3,4-tetrahydroisoquinolin-7-yl]quinazoline-2,5-diamine]: the IC50 amounted to 0.0825 nM.

As for `COc1ccccc1Nc1ncc2c(N)c(F)c(-c3cnc4c(c3C)NCCO4)cc2n1` [Compound 2-71, 6-fluoro-N~2~-(2-methoxyphenyl)-7-(8-methyl-2,3-dihydro-1H-pyrido[2,3-b][1,4]oxazin-7-yl)quinazoline-2,5-diamine], the IC50 was 0.254 nM.

The compound `COc1c(Nc2ncc3c(N)c(F)c(-c4cnc5c(c4C)NCCO5)cc3n2)ccc2c1CCNC(=O)C2` [Compound 2-21] came in with an IC50 of 487 nM.

Compound `COc1cc2c(cc1Nc1ncc3ccc(-c4cc(C)ccc4N4CCOC4=O)cc3n1)CN(C)CC2` [Compound 1-11, 3-(2-{2-[(6-methoxy-2-methyl-1,2,3,4-tetrahydroisoquinolin-7-yl)amino]quinazolin-7-yl}-4-methylphenyl)-1,3-oxazolidin-2-one] displayed an IC50 of 179 nM.
